Results from patent publication US7173062B2, “Method for the improvement of skin wrinkles using retinyl retinoate” (Enprani Co., Ltd., priority 2001, dated 2007).

Columns and labels:
[1] = tested on: skin of normal adults; test: Test for skin irritation property (closed patch test); format: in vivo, human; details: closed patch test 24 hours, 20 adults
Protocol: In order to examine the skin irritation of the compound of formula (1), a patch test for the skin of normal adults was carried out. As the carrier, capryl caprylic triglyceride or the conventional O/W formulation was used, and twenty (20) adults per a group were tested for 24 hours.
The conventional O/W formulation used in the present experiment was prepared according to the following procedure.
Each of the aqueous part of Nos. 1–6 and the oily part of Nos. 7–13 as shown in the following Table 1 was heated to 75–80° C. to be thoroughly dissolved. The oily part was slowly added to the aqueous part and emulsification was performed for 5 minutes at 75–80° C. in a homomixer of 3000rpm. During the emulsification, the mixture was neutralized by the neutralizing agent of No. 14. After the first emulsification, the mixture was cooled, the retinal retaliate and fragrance of Nos. 15–16 were added at 50–55° C., and then the second emulsification was carried out for 3 minutes in a homomixer of 3000rpm. The mixture was cooled again to 27–30° C. to prepare the composition of O/W formulation.
From the experimental results, the irritation indexes were calculated according to the following Equation 1 and the results are represented in the following Table 2. Irritation index={Σ(Test Value×Number of Examinees Corresponding to the Test Value)/(Total Examinees×The Maximum Test Value)×100 Equation 1
Test Value +++: 5, ++: 4, +: 3, +−: 2, −:1
The degree of irritation was determined according to the following standards:
1.9 or less: Minute irritation, 2.0–2.9: Weak irritation, 3.0–3.9: Moderate irritation, 4.0 or more: Strong irritation

[2] = tested on: RXR α, β, γ; test: Activity for RXR (CAT reporter in HaCaT cells); format: cell-based; details: 1 μM, CAT ELISA
Protocol: (§1) The effect of the retinol derivatives on the activity of RAR and RXR was examined as follows.
(§2) Experimental procedure: Recombinant gene of DR5-tk-CAT or DR1-tk-CAT comprising DR1 or DR5 as a response element of RAR/RXR, […] promoter, and CAT (chloramphenicol acetyl transferase) was suitably combined with a plasmid DNA that expresses RAR α, β, γ and cotransfected to HaCaT cell line, a skin cancer cell line, with Lipofectamin (GibcoBRL). Then, the cells were incubated in DMEM/10% FBS medium for 1 day, retinol derivative was added in a concentration of 1 μM, and the cells were incubated again for 1 day under the condition of 5% CO2 and 37° C. The cells were washed with phosphate-buffered salione (PBS). Proteins were extracted from each cell, the activity of β-galactosidase was assayed, and the amount of protein was measured to determine the transfection efficiency. Further, the degree of transcription for RAR or RXR was analyzed by CAT ELISA (Roche Molecular Biochemicals, Mannheim, Germany).

[3] = Photostability test (UV-A 356 nm, 1H NMR); format: physicochemical; set-up: key: 4 = No qualitative change in ^1H NMR spectrum; 3 = Minute noise but no qualitative change in ^1H NMR spectrum; 2 = Clear noise and some qualitative change in ^1H NMR spectrum; 1 = Qualitative confirmation is difficult in ^1H NMR spectrum; details: room temperature
Protocol: In order to examine photostability of the compound of formula (1) compared with retinol, 10 mg of sample was irradiated by UV-A light (wavelength 356 nm) using a Spectroline (Model CM-10; Fluorescence analysis cabinet; Spectronics Corporation, Westbury, N.Y., USA) at certain intervals of time at room temperature.

[4] = tested on: Normal human fibroblast (Newborn, passage: 6); test: Collagen synthesis test (Sircol collagen assay); format: cell-based; details: for increasing effect for collagen synthesis over control group treated only by DMEM: 2 days
Protocol: The effect for collagen synthesis of the compound of formula (1) was examined by using retinol, retinoic acid, and derivatives thereof as comparison compounds to confirm its utility as inhibitors for skin aging as follows. The results are represented in FIG. 2.
Cell: Normal human fibroblast (Newborn, passage: 6)
Medium: DMEM containing 10% FBS→DMEM free of FBS was used when cells were treated with samples.
Concentration: A range of concentration where the samples exert no toxicity to the cells was selected through a cell toxicity test ? 0.000001%, 0.00001%(w/v)
Procedure: 1×10^5 cells/well were inoculated into a 6-well plate. Cells were cultured to show about 79–80% confluent. Cells were treated with test samples and incubated for 2 days (FBS was not added to the medium when cells were treated with samples). After 2 days, cell medium and cells were separated from each other and respectively stored in a refrigerator. The cell extract was subjected to the protein analysis (BCA Protein Assay Kit, PIERCE 23225) and the medium was subjected to collagen analysis.
After the medium was removed, a small amount of PBS was added. Cells were scraped with a scraper. 1N NaOH (100 μl) and distilled water (400 μl) were added and the resulting mixture was allowed to stand overnight. Then, the protein analysis was carried out.
Collagen analysis: Analysis kit (Sircol Collagen assay kit—a dye that specifically combines with soluble collagen is used)
1.0 ml of Sircol Dye Reagent was introduced into each tube and mixed for 30 minutes. The mixture was centrifuged for 10 minutes at 5,000 g or more and the supernatant was removed. 1.0 ml Sircol Alkali Reagent was added, slowly mixed, and absorbance at 540 nm was measured. The amount of protein was converted into the value of collagen analysis (see: Mechanism of Aging and Development 73, 179–187, 1994).
After the above experiment, the increasing ratio for collagen synthesis of the test group over the control group treated only by DMEM was depicted in FIG. 2.

[5] = target: T1, RAR α (Homo sapiens, UniProt P10276); test: Activity for RAR α (CAT reporter in HaCaT cells); format: cell-based; details: 1 μM, CAT ELISA
T1 construct: expressed in transfected cells; host or cells: HaCaT
T1 sequence (P10276 1-462): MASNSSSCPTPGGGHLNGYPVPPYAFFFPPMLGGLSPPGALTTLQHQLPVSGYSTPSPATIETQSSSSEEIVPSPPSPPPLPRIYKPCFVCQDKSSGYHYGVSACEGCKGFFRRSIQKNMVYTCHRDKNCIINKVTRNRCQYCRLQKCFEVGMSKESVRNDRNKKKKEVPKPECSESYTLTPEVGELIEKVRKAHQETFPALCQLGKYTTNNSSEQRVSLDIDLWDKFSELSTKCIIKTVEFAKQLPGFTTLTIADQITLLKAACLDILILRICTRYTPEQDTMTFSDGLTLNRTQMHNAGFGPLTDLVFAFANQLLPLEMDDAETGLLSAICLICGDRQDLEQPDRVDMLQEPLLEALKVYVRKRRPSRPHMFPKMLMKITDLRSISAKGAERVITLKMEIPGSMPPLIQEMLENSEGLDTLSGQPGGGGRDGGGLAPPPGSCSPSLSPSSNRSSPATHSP
Protocol: as §1, §2

[6] = 0.075% in C.C.T (capryl caprylic triglyceride)

Structure (SMILES)	Irritation Index [1, 6]	Degree of Irritation ([1]; 0.075% in C.C.T)	Relative activity against RXR α, β, γ ([2]; Control = 1.0)	Relative activity against RXR α, β, γ ([2]; Control = 1.0, listed as retinol)	Photostability level ([3]; After 0 hour, 10 mg sample)	Photostability level ([3]; After 2 hours)	Photostability level ([3]; After 12 hours)	Photostability level ([3]; After 24 hours)	Photostability level ([3]; After 48 hours)	increasing effect for collagen synthesis over control group treated only by DMEM ([4]; 10^−6% (W/V), human fibroblast)	Relative activity against RAR α ([5]; Control = 1.0)	Degree of Irritation ([1]; 0.3% in C.C.T)	Irritation Index ([1]; 0.3% in C.C.T)	Degree of Irritation ([1]; 0.3% in O/W Formulation)	Irritation Index ([1]; 0.3% in O/W Formulation)	Degree of Irritation ([1]; 0.55% in C.C.T)	Irritation Index ([1]; 0.55% in C.C.T)	effect for collagen synthesis (FIG. 2), comparison in words ([4]; 0.000001%, 0.00001%(w/v), human fibroblast)	collagen synthesis effect relative to retinol at the same concentration ([4]; 10^−6% (W/V))	Relative activity against RAR α ([5]; Control = 1.0, listed as compound of formula (1))
CC1=C(/C=C/C(C)=C/C=C/C(C)=C/CO)C(C)(C)CCC1 [Retinol]	2.5	Weak irritation (2.0–2.9: Weak irritation)	1.0	no activity	4	3	2	1	1	4.94%	27.5									
CC1=C(/C=C/C(C)=C/C=C/C(C)=C/COC(=O)/C=C(C)/C=C/C=C(C)/C=C/C2=C(C)CCCC2(C)C)C(C)(C)CCC1 [Compound of formula (1), Retinyl retinoate]	1.3	Minute irritation (1.9 or less: Minute irritation)	1.0		4	4	3	3	3	41.29%	22.5	Minute irritation (1.9 or less: Minute irritation)	1.3	Weak irritation (2.0–2.9: Weak irritation)	2.0	Minute irritation (1.9 or less: Minute irritation)	1.3	superior effect for collagen synthesis at low concentration to retinol or retinoic acid	about 10 times	relatively specific and high activity
